From patent publication US20260062443A1 (ALEXION PHARMACEUTICALS, INC., priority 2022, published 2026)

Target: T1, Human complement C1s enzyme (Homo sapiens, UniProt P09871)
T1 sequence (P09871 438-688 limits assumed): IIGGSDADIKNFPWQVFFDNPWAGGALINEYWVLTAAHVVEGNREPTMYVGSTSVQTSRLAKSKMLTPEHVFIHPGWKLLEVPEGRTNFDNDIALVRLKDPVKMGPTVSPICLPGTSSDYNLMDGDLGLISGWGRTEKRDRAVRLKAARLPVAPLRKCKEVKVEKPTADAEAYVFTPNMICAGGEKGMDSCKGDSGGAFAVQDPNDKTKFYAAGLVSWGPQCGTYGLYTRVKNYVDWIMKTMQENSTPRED
T1 sequence (P09871 16-437 partner limits assumed): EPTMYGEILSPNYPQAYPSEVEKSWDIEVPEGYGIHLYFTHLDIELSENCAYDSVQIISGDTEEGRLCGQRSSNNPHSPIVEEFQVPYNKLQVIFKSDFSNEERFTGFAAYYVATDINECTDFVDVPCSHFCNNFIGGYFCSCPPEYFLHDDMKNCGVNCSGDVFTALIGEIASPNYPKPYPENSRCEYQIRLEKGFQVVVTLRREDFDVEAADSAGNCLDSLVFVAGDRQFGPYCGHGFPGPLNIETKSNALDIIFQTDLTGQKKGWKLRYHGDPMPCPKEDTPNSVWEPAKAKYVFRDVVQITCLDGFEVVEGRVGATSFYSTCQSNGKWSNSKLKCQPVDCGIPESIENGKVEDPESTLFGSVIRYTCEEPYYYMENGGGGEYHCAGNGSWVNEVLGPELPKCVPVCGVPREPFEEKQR
Assay: Human C1s enzyme assay
Type: biochemical
Conditions: human complement C1s enzyme 1.16 nM, substrate Z-L-Lys-SBzl 100 μM, 5 min preincubation; read-out: IC50 (Stars), C1s Inhibiting Activity
In short: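 Serum-purified human C1s (1.16 nM final) preincubated 5 min at room temperature with compound in 50 mM Tris, 1 M NaCl, pH 7.5. Z-L-Lys-SBzl and DTNB added at 100 μM each; A405 followed every 30 s for 30 min, and IC50 obtained by nonlinear regression of reaction rates.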

IC50 [nM] | SMILES
< 100 | Cc1ccc(-c2ccc(C(=O)NCC(=O)N3CC4(C[C@H]3C(=O)NCc3cc5cnccc5[nH]3)OCCO4)cc2)s1 [Compound 297, (S)-N-((1H-pyrrolo[3,2-c]pyridin-2-yl)methyl)-7-((4-(5-methylthiophen-2-yl)benzoyl)glycyl)-1,4-dioxa-7-azaspiro[4.4]nonane-8-carboxamide]
< 100 | Cc1ccc(Oc2cccc(C(=O)NCC(=O)N3C[C@H](OC(F)F)C[C@H]3C(=O)NCc3cc4cnccc4[nH]3)c2)c(C)c1 [Compound 298, (2S,4R)-N-((1H-pyrrolo[3,2-c]pyridin-2-yl)methyl)-4-(difluoromethoxy)-1-((3-(2,4-dimethylphenoxy)benzoyl)glycyl) pyrrolidine-2-carboxamide]
< 100 | O=C(NCC(=O)N1C[C@H](OC(F)F)C[C@H]1C(=O)NCc1cc2cnccc2[nH]1)c1cccc(Oc2ccccc2F)c1 [Compound 299, (2S,4R)-N-((1H-pyrrolo[3,2-c]pyridin-2-yl)methyl)-4-(difluoromethoxy)-1-((3-(2-fluorophenoxy)benzoyl)glycyl) pyrrolidine-2-carboxamide]
< 100 | C[C@@H](NC(=O)[C@@H]1CC2(CN1C(=O)CNC(=O)c1ccc3oc4ccccc4c3c1)OCCO2)c1cc2cnccc2[nH]1 [Compound 300, (S)-N-((R)-1-(1H-pyrrolo[3,2-c]pyridin-2-yl)ethyl)-7-((dibenzo[b,d]furan-2-carbonyl)glycyl)-1,4-dioxa-7-azaspiro[4.4]nonane-8-carboxamide]
< 100 | CC1(C)c2ccccc2-c2cc(C(=O)NCC(=O)N3C[C@H](OC(F)F)C[C@H]3C(=O)NCc3cc4cnccc4[nH]3)ccc21 [Compound 301, (2S,4R)-N-((1H-pyrrolo[3,2-c]pyridin-2-yl)methyl)-4-(difluoromethoxy)-1-((9,9-dimethyl-9H-fluorene-3-carbonyl)glycyl) pyrrolidine-2-carboxamide]
< 100 | CC1c2ccccc2-c2cc(C(=O)NCC(=O)N3C[C@H](OC(F)F)C[C@H]3C(=O)NCc3cc4cnccc4[nH]3)ccc21 (stereo partly drawn) [Compound 302, (2S,4R)-N-((1H-pyrrolo[3,2-c]pyridin-2-yl)methyl)-4-(difluoromethoxy)-1-((9-methyl-9H-fluorene-3-carbonyl)glycyl) pyrrolidine-2-carboxamide]
< 100 | O=C(NCC(=O)N1C[C@H](OC(F)F)C[C@H]1C(=O)NCc1cc2cnccc2[nH]1)c1cccc(Oc2ccsc2)c1 [Compound 303, (2S,4R)-4-(difluoromethoxy)-N-(1H-pyrrolo[3,2-c]pyridin-2-ylmethyl)-1-[2-[[3-(3-thienyloxy)benzoyl]amino]acetyl]pyrrolidine-2-carboxamide]
< 100 | O=C(NCC(=O)N1C[C@H](OC(F)F)C[C@H]1C(=O)NCc1cc2cnccc2[nH]1)c1ccc(F)c(Oc2ccccc2)c1 [Compound 304, (2S,4R)-N-((1H-pyrrolo[3,2-c]pyridin-2-yl)methyl)-4-(difluoromethoxy)-1-((4-fluoro-3-phenoxybenzoyl)glycyl)pyrrolidine-2-carboxamide]
< 100 | Cc1ccc(Cc2cccc(C(=O)NCC(=O)N3C[C@H](OC(F)F)C[C@H]3C(=O)NCc3cc4cnccc4[nH]3)c2)c(F)c1 [Compound 305, (2S,4R)-N-((1H-pyrrolo[3,2-c]pyridin-2-yl)methyl)-4-(difluoromethoxy)-1-((3-(2-fluoro-4-methylbenzyl)benzoyl)glycyl)pyrrolidine-2-carboxamide]
< 100 | Cc1cccc(-c2nc(C)cc(C(=O)NCC(=O)N3CC4(C[C@H]3C(=O)NCc3cc5cnccc5[nH]3)OCCO4)c2C)c1 [Compound 306, (S)-N-((1H-pyrrolo[3,2-c]pyridin-2-yl)methyl)-7-((3,6-dimethyl-2-(m-tolyl)isonicotinoyl)glycyl)-1,4-dioxa-7-azaspiro[4.4]nonane-8-carboxamide]
< 100 | Cc1ccc(Oc2cccc(C(=O)NCC(=O)N3CC4(C[C@H]3C(=O)NCc3cc5cnccc5[nH]3)OCCO4)c2)c(F)c1 [Compound 307, (S)-N-((1H-pyrrolo[3,2-c]pyridin-2-yl)methyl)-7-((3-(2-fluoro-4-methylphenoxy)benzoyl)glycyl)-1,4-dioxa-7-azaspiro[4.4]nonane-8-carboxamide]
< 100 | Cc1cc(F)ccc1Oc1ccc(C(=O)NCC(=O)N2C[C@H](OC(F)F)C[C@H]2C(=O)NCc2cc3cnccc3[nH]2)cc1 [Compound 308, (2S,4R)-N-((1H-pyrrolo[3,2-c]pyridin-2-yl)methyl)-4-(difluoromethoxy)-1-((4-(4-fluoro-2-methylphenoxy)benzoyl)glycyl)pyrrolidine-2-carboxamide]
< 100 | Cc1ccc(Oc2cccc(C(=O)NCC(=O)N3C[C@H](S(C)(=O)=O)C[C@H]3C(=O)NCc3cc4cnccc4[nH]3)c2)c(F)c1 [Compound 309, (2S,4R)-N-((1H-pyrrolo[3,2-c]pyridin-2-yl)methyl)-1-((3-(2-fluoro-4-methylphenoxy)benzoyl)glycyl)-4-(methylsulfonyl) pyrrolidine-2-carboxamide]
< 100 | Cc1ccc(Oc2cccc(C(=O)NCC(=O)N3CCC[C@H]3C(=O)NCc3cc4cnccc4[nH]3)c2)c(F)c1 [Compound 310, (S)-N-((1H-pyrrolo[3,2-c]pyridin-2-yl)methyl)-1-((3-(2-fluoro-4-methylphenoxy)benzoyl)glycyl)pyrrolidine-2-carboxamide]
< 100 | Cc1ccc(Oc2cccc(C(=O)NCC(=O)N3C[C@H](OC(F)F)C[C@H]3C(=O)N[C@H](C)c3cc4cnccc4[nH]3)c2)c(F)c1 [Compound 312, (2S,4R)-N-((R)-1-(1H-pyrrolo[3,2-c]pyridin-2-yl)ethyl)-4-(difluoromethoxy)-1-((3-(2-fluoro-4-methylphenoxy)benzoyl)glycyl) pyrrolidine-2-carboxamide]
< 100 | O=C(NCC(=O)N1C[C@H](OC(F)F)C[C@H]1C(=O)NCc1cc2c(s1)CCNC2)c1ccc2c(c1)Oc1ccccc1S2 [Compound 313, (2S,4R)-4-(difluoromethoxy)-1-((phenoxathiine-3-carbonyl)glycyl)-N-((4,5,6,7-tetrahydrothieno[3,2-c]pyridin-2-yl)methyl)pyrrolidine-2-carboxamide]
< 100 | CC1(O)c2ccccc2-c2cc(C(=O)NCC(=O)N3C[C@H](OC(F)F)C[C@H]3C(=O)NCc3cc4cnccc4[nH]3)ccc21 (stereo partly drawn) [Compound 314, (2S,4R)-N-((1H-pyrrolo[3,2-c]pyridin-2-yl)methyl)-4-(difluoromethoxy)-1-((9-hydroxy-9-methyl-9H-fluorene-3-carbonyl)glycyl) pyrrolidine-2-carboxamide]
< 100 | Cc1ccc(Oc2cccc(C(=O)NCC(=O)N3[C@H]4C[C@@]4(C)C[C@H]3C(=O)NCc3cc4cnccc4[nH]3)c2)c(F)c1 [Compound 315, (1S,3S,5S)-N-((1H-pyrrolo[3,2-c]pyridin-2-yl)methyl)-2-((3-(2-fluoro-4-methylphenoxy)benzoyl)glycyl)-5-methyl-2-azabicyclo[3.1.0]hexane-3-carboxamide]
< 100 | Cc1ccc(Oc2ccc(C(=O)NCC(=O)N3C[C@H](OC(F)F)C[C@H]3C(=O)NCc3cc4cnccc4[nH]3)cc2)c(F)c1 [Compound 316, (2S,4R)-N-((1H-pyrrolo[3,2-c]pyridin-2-yl)methyl)-4-(difluoromethoxy)-1-((4-(2-fluoro-4-methylphenoxy)benzoyl)glycyl) pyrrolidine-2-carboxamide]
< 100 | O=C(NCC(=O)N1C[C@H](OC(F)F)C[C@H]1C(=O)NCc1cc2cnccc2[nH]1)c1ccc(F)c(Oc2ccsc2)c1 [Compound 317, (2S,4R)-4-(difluoromethoxy)-1-[2-[[4-fluoro-3-(3-thienyloxy)benzoyl]amino]acetyl]-N-(1H-pyrrolo[3,2-c]pyridin-2-ylmethyl)pyrrolidine-2-carboxamide]
< 100 | Cc1ccc(Oc2cccc(C(=O)NCC(=O)N3C[C@@](F)(CF)C[C@H]3C(=O)NCc3cc4cnccc4[nH]3)c2)c(F)c1 [Compound 319, (2S,4R)-N-((1H-pyrrolo[3,2-c]pyridin-2-yl)methyl)-4-fluoro-1-((3-(2-fluoro-4-methylphenoxy)benzoyl)glycyl)-4-(fluoromethyl) pyrrolidine-2-carboxamide]
< 100 | Cc1ccc(Oc2cccc(C(=O)NCC(=O)N3[C@H]4C[C@@]4(C)C[C@H]3C(=O)N[C@H](C)c3cc4cnccc4[nH]3)c2)c(F)c1 [Compound 320, (1S,3S,5S)-N-((R)-1-(1H-pyrrolo[3,2-c]pyridin-2-yl)ethyl)-2-((3-(2-fluoro-4-methylphenoxy)benzoyl)glycyl)-5-methyl-2-azabicyclo[3.1.0]hexane-3-carboxamide]
< 100 | Cc1ccc(Oc2cccc(C(=O)NCC(=O)N3CC4(C[C@H]3C(=O)N[C@H](C)c3cc5cnccc5[nH]3)OCCO4)c2)c(F)c1 [Compound 321, (S)-N-((R)-1-(1H-pyrrolo[3,2-c]pyridin-2-yl)ethyl)-7-((3-(2-fluoro-4-methylphenoxy)benzoyl)glycyl)-1,4-dioxa-7-azaspiro[4.4]nonane-8-carboxamide]
